This is an account of results in ChEMBL document CHEMBL1240346, “AC220 is a uniquely potent and selective inhibitor of FLT3 for the treatment of acute myeloid leukemia (AML)” (Blood, 2009).

The structures appear in SMILES notation.

The nature of series [1]: in vitro. As to conditions: human, A375 cells.
Description: Toxicity against human A375 cells after 72 hrs by cell titer-blue assay
A short description of series [2]: in vivo. As to conditions: nu/nu, mouse, po, 10 mg/kg.
Series [3] is described as follows: in vivo. As to conditions: nu/nu, mouse, plasma, po, 10 mg/kg.
Another series has as its system MV4-11. Put plainly: cells. As to conditions: Homo sapiens, MV4-11, 72 h.
Series [4] can be described thus: in vitro. As to conditions: mouse, plasma.
Description: Plasma protein binding in mouse
In series [5] the target is T1, Poly [ADP-ribose] polymerase tankyrase-2 (Homo sapiens, UniProt Q9H2K2).
T1 sequence (Q9H2K2 whole entry): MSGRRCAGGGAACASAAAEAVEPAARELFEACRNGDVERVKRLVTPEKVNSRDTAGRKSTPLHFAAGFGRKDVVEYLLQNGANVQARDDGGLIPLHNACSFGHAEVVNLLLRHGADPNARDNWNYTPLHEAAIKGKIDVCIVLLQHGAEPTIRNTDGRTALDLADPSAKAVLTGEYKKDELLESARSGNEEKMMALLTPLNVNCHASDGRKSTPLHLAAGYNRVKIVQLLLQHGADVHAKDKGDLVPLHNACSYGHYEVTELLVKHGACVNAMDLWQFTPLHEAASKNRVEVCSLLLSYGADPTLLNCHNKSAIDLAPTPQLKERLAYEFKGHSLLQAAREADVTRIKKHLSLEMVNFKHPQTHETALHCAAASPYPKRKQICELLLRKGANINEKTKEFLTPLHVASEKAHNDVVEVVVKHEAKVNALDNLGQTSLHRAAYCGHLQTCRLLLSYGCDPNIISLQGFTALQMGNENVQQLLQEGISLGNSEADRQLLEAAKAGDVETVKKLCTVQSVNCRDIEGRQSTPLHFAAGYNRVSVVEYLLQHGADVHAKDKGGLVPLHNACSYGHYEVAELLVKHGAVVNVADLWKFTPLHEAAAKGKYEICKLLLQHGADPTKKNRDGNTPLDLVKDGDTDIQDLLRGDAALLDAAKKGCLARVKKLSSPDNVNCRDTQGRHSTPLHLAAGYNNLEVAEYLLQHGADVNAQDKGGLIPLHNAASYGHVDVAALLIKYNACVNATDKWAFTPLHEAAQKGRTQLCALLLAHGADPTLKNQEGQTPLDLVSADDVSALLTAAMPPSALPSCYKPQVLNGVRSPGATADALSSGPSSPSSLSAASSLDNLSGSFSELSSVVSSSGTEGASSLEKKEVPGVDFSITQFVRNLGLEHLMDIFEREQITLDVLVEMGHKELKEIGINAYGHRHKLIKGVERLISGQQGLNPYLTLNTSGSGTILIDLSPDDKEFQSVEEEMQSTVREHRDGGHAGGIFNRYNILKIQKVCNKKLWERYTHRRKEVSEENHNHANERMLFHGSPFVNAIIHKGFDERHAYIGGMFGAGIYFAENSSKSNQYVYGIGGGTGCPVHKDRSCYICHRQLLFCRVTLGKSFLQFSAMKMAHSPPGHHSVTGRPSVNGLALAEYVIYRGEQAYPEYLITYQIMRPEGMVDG

Series [6] in a line: in vivo. As to conditions: nu/nu, mouse, po, 10 mg/kg. This is another data set of the same source.
The target in another series is Ephrin type-A receptor 7 (Homo sapiens, UniProt Q15375).
Chain of Ephrin type-A receptor 7 (Q15375 whole entry): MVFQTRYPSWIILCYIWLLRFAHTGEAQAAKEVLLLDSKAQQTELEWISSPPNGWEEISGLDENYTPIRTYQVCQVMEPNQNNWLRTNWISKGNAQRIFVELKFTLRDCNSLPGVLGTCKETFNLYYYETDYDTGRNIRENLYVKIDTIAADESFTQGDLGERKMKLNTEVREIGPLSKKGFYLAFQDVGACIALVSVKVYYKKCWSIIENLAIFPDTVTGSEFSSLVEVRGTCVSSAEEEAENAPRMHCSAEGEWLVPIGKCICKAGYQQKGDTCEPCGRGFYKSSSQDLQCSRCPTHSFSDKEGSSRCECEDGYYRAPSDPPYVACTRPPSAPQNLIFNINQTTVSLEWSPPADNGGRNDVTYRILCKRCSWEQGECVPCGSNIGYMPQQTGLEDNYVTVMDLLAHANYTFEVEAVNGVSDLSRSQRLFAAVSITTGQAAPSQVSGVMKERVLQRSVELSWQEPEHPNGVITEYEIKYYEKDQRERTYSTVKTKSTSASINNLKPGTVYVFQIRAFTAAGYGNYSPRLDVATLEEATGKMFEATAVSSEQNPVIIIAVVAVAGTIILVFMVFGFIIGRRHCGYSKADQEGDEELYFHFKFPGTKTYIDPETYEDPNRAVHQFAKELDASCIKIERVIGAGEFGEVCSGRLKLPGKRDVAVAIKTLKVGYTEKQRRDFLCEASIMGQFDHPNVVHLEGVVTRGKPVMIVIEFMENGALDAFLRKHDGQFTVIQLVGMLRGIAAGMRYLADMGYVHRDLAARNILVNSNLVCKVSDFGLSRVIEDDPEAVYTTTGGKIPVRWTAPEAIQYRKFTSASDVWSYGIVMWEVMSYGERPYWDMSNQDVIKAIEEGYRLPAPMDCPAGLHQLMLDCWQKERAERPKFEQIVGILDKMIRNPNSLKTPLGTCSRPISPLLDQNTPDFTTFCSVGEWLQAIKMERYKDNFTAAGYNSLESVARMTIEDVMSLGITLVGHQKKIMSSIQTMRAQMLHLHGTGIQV

Description for Ephrin type-A receptor 7: Binding affinity to EPHA7
Description for MV4-11: Cytotoxicity against human MV4-11 cells after 72 hrs by cell titer-blue assay

What is called IC50 is the midpoint of a concentration-inhibition curve. Low values mean greater potency in that assay, high ones weaker potency in that assay. One may read the Tmax as the time from dosing to the highest level. For orientation: AUC(0-t) means the area under the concentration-time curve up to a stated or last time point. High values mean more exposure, low ones less exposure. The fraction unbound is free concentration divided by total concentration. Low readings indicate little free substance, high ones much free substance. As a reminder, the Kd is the free concentration of one partner at which half of the binding sites on the other are occupied at equilibrium, for simple one-to-one binding. What is called Cmax is the maximum level reached in the sampled fluid or tissue. In the series “in vitro [1]”, `COc1cc2c(N3CCN(C(=O)Nc4ccc(OC(C)C)cc4)CC3)ncnc2cc1OCCCN1CCCCC1` [TANDUTINIB] yielded an IC50 at 72 h of over 10000 nM. In addition, the time to peak (Tmax) in “in vivo [2]” came to 60 min. This compound also registered an AUC(0-t) at 24 h in “in vivo [3]” of 0.28 µM·h. Inhibition in the series on MV4-11 was half-maximal at 60 nM (IC50). The same compound had a fraction unbound in the series “in vitro [4]” of 0.02. In series [5], this compound had a dissociation constant (Kd) of over 10000 nM. In “in vivo [6]”, this compound came in with a Cmax of 81 nM.

`CO[C@@H]1[C@H](N(C)C(=O)c2ccccc2)C[C@H]2O[C@]1(C)n1c3ccccc3c3c4c(c5c6ccccc6n2c5c31)C(=O)N[C@H]4O` [CGP-52421] gave an IC50 at 72 h in the series “in vitro [1]” of 530 nM. Moreover, in the series “in vivo [2]”, the Tmax is 40.2 min. In the series “in vivo [3]”, this compound returned an area under the curve AUC(0-t) at 24 h of 8.4 µM·h. This compound returned a dissociation constant Kd on Ephrin type-A receptor 7 of over 10000 nM. In addition, inhibition in the series with MV4-11 was half-maximal at 64 nM (IC50). The peak concentration (Cmax) in “in vivo [6]” was found to be 2300 nM.
